Measurements as given in patent US20060247129A1, “Surfactant compounds and agrochemical compositions” (Imperial Chemical Industries PLC, priority 2003, published 2006).

How the values were obtained:
Assay in all cases: glasshouse herbicide spray test, % weed control, adjuvant with glyphosate potassium salt
Assay type in all cases: in vivo
Settings in all cases: 19 days after treatment
Abutilon Theophrasti = test system: Abutilon Theophrasti
Method: (§1) The compound of Synthesis Example SE1 was tested as an adjuvant with glyphosate potassium salt, mixing the glyphosate and adjuvant in a tank mix using concentrations of glyphosate from 0.125 to 2 g.l-1 and of adjuvant from 0.003125 to 0.2% v/v. The tank mixes were sprayed as a herbicide on a variety of test species at an application rate of 200 l.ha^−1 to give application rates of glyphosate of from 25 to 400 g (active ingredient).ha^−1. The plants were grown in a warm glasshouse and assessed 19 days after treatment for % control—the mean of three replicates for visually assessed % weed control, relative to unsprayed plants of each species in the same test.
(§2) Example AE1 was repeated but using the compound made in Synthesis Example SE4 as the adjuvant.

Echinochloa crus-galli = test system: Echinochloa crus-galli
Method: as §1, §2

Portulaca oleracea = test system: Portulaca oleracea
Method: as §1, §2

Sida Spinosa = test system: Sida Spinosa
Method: as §1, §2

Solanum nigra = test system: Solanum nigra
Method: as §1, §2

Sorghum halepense = test system: Sorghum halepense
Method: as §1, §2

[1] = glyphosate 50 g ai/ha, adjuvant 0.003125 % v/v
[2] = glyphosate 50 g ai/ha, adjuvant 0.0125 % v/v
[3] = glyphosate 50 g ai/ha, adjuvant 0.05 % v/v
[4] = glyphosate 50 g ai/ha, adjuvant 0.2 % v/v
[5] = glyphosate 100 g ai/ha, adjuvant 0.003125 % v/v
[6] = glyphosate 100 g ai/ha, adjuvant 0.0125 % v/v
[7] = glyphosate 100 g ai/ha, adjuvant 0.05 % v/v
[8] = glyphosate 100 g ai/ha, adjuvant 0.2 % v/v
[9] = glyphosate 200 g ai/ha, adjuvant 0.003125 % v/v
[10] = glyphosate 200 g ai/ha, adjuvant 0.0125 % v/v
[11] = glyphosate 200 g ai/ha, adjuvant 0.05 % v/v
[12] = glyphosate 200 g ai/ha, adjuvant 0.2 % v/v
[13] = glyphosate 400 g ai/ha, adjuvant 0.003125 % v/v
[14] = glyphosate 400 g ai/ha, adjuvant 0.0125 % v/v
[15] = glyphosate 400 g ai/ha, adjuvant 0.05 % v/v
[16] = glyphosate 400 g ai/ha, adjuvant 0.2 % v/v
[17] = glyphosate 25 g ai/ha, adjuvant 0.003125 % v/v
[18] = glyphosate 25 g ai/ha, adjuvant 0.0125 % v/v
[19] = glyphosate 25 g ai/ha, adjuvant 0.05 % v/v
[20] = glyphosate 25 g ai/ha, adjuvant 0.2 % v/v

Random 8-ethoxylate-2-propoxylate of N-methyl glucamine C13/C15 glycidyl ether [SE4]
% control ABUTH (Abutilon Theophrasti; [1]): 40% | % control ABUTH (Abutilon Theophrasti; [2]): 48% | % control ABUTH (Abutilon Theophrasti; [3]): 25% | % control ABUTH (Abutilon Theophrasti; [4]): 43% | % control ABUTH (Abutilon Theophrasti; [5]): 42% | % control ABUTH (Abutilon Theophrasti; [6]): 33% | % control ABUTH (Abutilon Theophrasti; [7]): 50% | % control ABUTH (Abutilon Theophrasti; [8]): 52% | % control ABUTH (Abutilon Theophrasti; [9]): 42% | % control ABUTH (Abutilon Theophrasti; [10]): 65% | % control ABUTH (Abutilon Theophrasti; [11]): 58% | % control ABUTH (Abutilon Theophrasti; [12]): 68% | % control ABUTH (Abutilon Theophrasti; [13]): 78% | % control ABUTH (Abutilon Theophrasti; [14]): 80% | % control ABUTH (Abutilon Theophrasti; [15]): 81% | % control ABUTH (Abutilon Theophrasti; [16]): 85% | % control ECHCG (Echinochloa crus-galli; [17]): 12% | % control ECHCG (Echinochloa crus-galli; [18]): 15% | % control ECHCG (Echinochloa crus-galli; [19]): 51% | % control ECHCG (Echinochloa crus-galli; [20]): 53% | % control ECHCG (Echinochloa crus-galli; [1]): 32% | % control ECHCG (Echinochloa crus-galli; [2]): 35% | % control ECHCG (Echinochloa crus-galli; [3]): 68% | % control ECHCG (Echinochloa crus-galli; [4]): 91% | % control ECHCG (Echinochloa crus-galli; [5]): 78% | % control ECHCG (Echinochloa crus-galli; [6]): 83% | % control ECHCG (Echinochloa crus-galli; [7]): 90% | % control ECHCG (Echinochloa crus-galli; [8]): 98% | % control ECHCG (Echinochloa crus-galli; [9]): 90% | % control ECHCG (Echinochloa crus-galli; [10]): 89% | % control ECHCG (Echinochloa crus-galli; [11]): 95% | % control ECHCG (Echinochloa crus-galli; [12]): 98% | % control POROC (Portulaca oleracea; [1]): 7% | % control POROC (Portulaca oleracea; [2]): 2% | % control POROC (Portulaca oleracea; [3]): 13% | % control POROC (Portulaca oleracea; [4]): 35% | % control POROC (Portulaca oleracea; [5]): 8% | % control POROC (Portulaca oleracea; [6]): 18% | % control POROC (Portulaca oleracea; [7]): 43% | % control POROC (Portulaca oleracea; [8]): 46% | % control POROC (Portulaca oleracea; [9]): 28% | % control POROC (Portulaca oleracea; [10]): 36% | % control POROC (Portulaca oleracea; [11]): 45% | % control POROC (Portulaca oleracea; [12]): 50% | % control POROC (Portulaca oleracea; [13]): 42% | % control POROC (Portulaca oleracea; [14]): 47% | % control POROC (Portulaca oleracea; [15]): 63% | % control POROC (Portulaca oleracea; [16]): 81% | % control SIDSP (Sida Spinosa; [1]): 30% | % control SIDSP (Sida Spinosa; [2]): 38% | % control SIDSP (Sida Spinosa; [3]): 38% | % control SIDSP (Sida Spinosa; [4]): 38% | % control SIDSP (Sida Spinosa; [5]): 37% | % control SIDSP (Sida Spinosa; [6]): 38% | % control SIDSP (Sida Spinosa; [7]): 52% | % control SIDSP (Sida Spinosa; [8]): 62% | % control SIDSP (Sida Spinosa; [9]): 50% | % control SIDSP (Sida Spinosa; [10]): 63% | % control SIDSP (Sida Spinosa; [11]): 77% | % control SIDSP (Sida Spinosa; [12]): 76% | % control SIDSP (Sida Spinosa; [13]): 76% | % control SIDSP (Sida Spinosa; [14]): 78% | % control SIDSP (Sida Spinosa; [15]): 78% | % control SIDSP (Sida Spinosa; [16]): 77% | % control SOLNI (Solanum nigra; [1]): 37% | % control SOLNI (Solanum nigra; [2]): 32% | % control SOLNI (Solanum nigra; [3]): 63% | % control SOLNI (Solanum nigra; [4]): 73% | % control SOLNI (Solanum nigra; [5]): 65% | % control SOLNI (Solanum nigra; [6]): 68% | % control SOLNI (Solanum nigra; [7]): 71% | % control SOLNI (Solanum nigra; [8]): 78% | % control SOLNI (Solanum nigra; [9]): 78% | % control SOLNI (Solanum nigra; [10]): 73% | % control SOLNI (Solanum nigra; [11]): 80% | % control SOLNI (Solanum nigra; [12]): 82% | % control SOLNI (Solanum nigra; [13]): 83% | % control SOLNI (Solanum nigra; [14]): 83% | % control SOLNI (Solanum nigra; [15]): 84% | % control SOLNI (Solanum nigra; [16]): 85% | % control SORHA (Sorghum halepense; [17]): 8% | % control SORHA (Sorghum halepense; [18]): 8% | % control SORHA (Sorghum halepense; [19]): 32% | % control SORHA (Sorghum halepense; [20]): 84% | % control SORHA (Sorghum halepense; [1]): 23% | % control SORHA (Sorghum halepense; [2]): 20% | % control SORHA (Sorghum halepense; [3]): 68% | % control SORHA (Sorghum halepense; [4]): 89% | % control SORHA (Sorghum halepense; [5]): 78% | % control SORHA (Sorghum halepense; [6]): 70% | % control SORHA (Sorghum halepense; [7]): 90% | % control SORHA (Sorghum halepense; [8]): 95% | % control SORHA (Sorghum halepense; [9]): 87% | % control SORHA (Sorghum halepense; [10]): 89% | % control SORHA (Sorghum halepense; [11]): 96% | % control SORHA (Sorghum halepense; [12]): 95%
